{"source": "patent US10092577B2", "about": "“Sterol derivatives for treating neurosensory hearing loss, and corresponding composition” (AFFICHEM, priority 2014, dated 2018)", "molecules": {"B1": {"name": "GDNF: glia cell-line derived neurotrophic factor (protein, UniProt P39905 78-211, looked up)", "Glial cell line-derived …": "SPDKQMAVLPRRERNRQAAAANPENSRGKGRRGQRGKNRGCVLTAIHLNVTDLGLGYETKEELIFRYCSGSCDAAETTYDKILKNLSRNRRLVSDKVGQACCRPIAFDDDLSFLDDNLVYHILRKHSAKRCGCI"}}, "key": {"[1]": {"system": "spiral ganglion neurons (SGNs)", "assay": "Delayed treatment (after two weeks of artificial perilymph following neomycin): eABR thresholds", "assay_type": "in vivo, guinea pigs", "details": "example 2, delayed treatment, 1 μM; from the fifth week; p<0.01 for DB", "procedure": "The studies of examples 1 to 3 were performed on guinea pigs (250-500 g). All the animals were provided with a platinum-iridium electrode inserted into the cochlear in order to mimic a cochlear implant. The experiments were carried out in accordance with the protocol described by […] and collaborators (Shinohara et al., 2002, Proc. Nati. Acad. Sci. USA, 99, 1657-60). The procedure used was the same as in example 1, apart from the difference that, following the infusion of neomycin sulfate, the pumps were filled with artificial perilymph for two weeks. […] There was no eABR stimulation possible in the animals placed under the same conditions as defined above, but not treated by the products DA or DB."}, "[2]": {"system": "spiral ganglion neurons (SGNs)", "assay": "Quantification of the density of the SGNs in Rosenthal's canal and histological analysis of cochlea slices", "assay_type": "in vivo, guinea pigs", "procedure": "The studies of examples 1 to 3 were performed on guinea pigs (250-500 g). All the animals were provided with a platinum-iridium electrode inserted into the cochlear in order to mimic a cochlear implant. The experiments were carried out in accordance with the protocol described by Raphael and collaborators (Shinohara et al., 2002, Proc. Nati. Acad. Sci. USA, 99, 1657-60).\nAfter the final measurement of the eABR threshold, the animals were heavily anaesthetised, intraperitoneally, using sodium pentobarbital (25 mg/kg) and infused intracardially with a saline solution (37° C.), which eliminates blood, then with a cold glutaraldehyde solution (2.5% in a 0.1 M phosphate buffer), which fixes the tissues. The temporal bone was removed, then the bulla was opened to reveal the cochlea. A small window was opened in the apex of the cochlea and the membrane of the round window so as to be able to delicately wash the cochlea with the glutaraldehyde solution. The cochlea was then decalcified in a solution of EDTA (0.1 M in the phosphate buffer) so as to make it possible to make cuts. After decalcification, the cochlea was dehydrated and enclosed in “plastic JB-4” (Polyscience Inc, Warrington, Pa.). The cochlea was sectioned into slices 4 μm thick. […] The six sections of Rosenthal's channel of six slices were analysed for each group of animals (Sigma Pro Scan) so as to count the spiral ganglion neurons. […]"}}, "data": [{"molecule": "CC(C)CCC[C@@H](C)[C@H]1CC[C@H]2[C@@H]3C[C@@H](NCCc4c[nH]cn4)[C@@]4(O)C[C@@H](O)CC[C@]4(C)[C@H]3CC[C@]12C", "note": "[DA, 6β-[2-(1H-imidazol-4-yl)-ethylamino]-cholestane-3β,5α-diol]", "values": [{"measurement": "eABR thresholds, treated group versus control group (artificial perilymph)", "setting": "[1]", "result": "no longer a significant difference"}]}, {"molecule": "CC(C)CCC[C@@H](C)[C@H]1CC[C@H]2[C@@H]3C[C@@H](NCCCNCCCCN)[C@@]4(O)C[C@@H](O)CC[C@]4(C)[C@H]3CC[C@]12C", "note": "[DB, 6β-[3-(4-aminobutylamino)propylamino]-cholestane-3β,5α-diol]", "values": [{"measurement": "eABR thresholds, treated group versus control group (artificial perilymph)", "setting": "[1]", "result": "significant difference"}, {"measurement": "appearance of the axons of the SGNs (histological analysis, FIG. 5)", "setting": "[2]; cochlea slices from the modiolus, axons not distinguishable in animals treated by AP", "result": "thin and long"}]}, {"molecule": "B1", "values": [{"measurement": "number of SGNs compared to the control group treated with the artificial perilymph", "setting": "[2]; animals of example 1 (early treatment), GDNF 1 μg/ml, P<0.001", "result": "significant difference"}]}]}
